Measured values published in PMC9783227, “New Derivatives of the Multi-Stage Active Malaria Box Compound MMV030666 and Their Antiplasmodial Potencies” (Pharmaceuticals, 2022).
Read-outs that look alike come from different tables or passages of the source.

Columns and labels:
[1] = Parallel artificial membrane permeability assay (PAMPA); settings: PAMPA, PBS pH 7.4, 200 µM, 5 h, room temperature
Experimental: The parallel artificial membrane permeability assay (PAMPA) is a fast and easy high-throughput assay to determine passive permeability of compounds through semi-permeable membranes (for example the blood-brain-barrier) without the influence of efflux pumps or transporter molecules.
With the high-throughput PAMPA the newly synthesized compounds were tested for their passive permeability through cell membranes without the influence of efflux pumps or transporter proteins. The assay was performed using a Corning® Gentest^TM Pre-coated PAMPA Plate System with 96-well polystyrene plates. The bottom of the acceptor plate consists of a porous membrane, whereby the pores are lined with a lipid-oil-lipid triple layer. Stock solutions of each test compound at 10 mM were prepared in DMSO or methanol and diluted with phosphate-buffered saline (PBS at a pH of 7.4) to a final concentration of 200 µM. […] The donor plate (bottom plate) was filled with the compound solutions, whereby all compounds were tested in quadruplicates. Each well of the acceptor plate (top plate) was filled with PBS buffer. Donor and acceptor plates were combined and incubated at room temperature for 5 h. After that, the plates were separated and 150 µL of each well of both plates were transferred to 96-well UV plates (Greiner Bio-One). Absorption at different wavelengths covering a range from 200 to 300 nm was measured using a SpectraMax M3 UV plate reader. […] The plates were analyzed at the wavelength where the R^2 value of the calibration curve was higher than 0.99 [41]. […] (2) cequ=[cD(t)∗VD+cA(t)∗VA]/(VD+VA) where: • VD—donor well volume (0.3 mL); • VA—acceptor well volume (0.2 mL); • cA(t)—acceptor well compound concentration at time t; • cD(t)—donor well compound concentration at time t.
Recovery of compounds from donor and acceptor wells (mass retention) was calculated as shown in the equation below. Data were only accepted when recovery exceeded 70%. (3) R=1−[cD(t)∗VD+cA(t)∗VA]/(c0∗VD) where: • R—mass retention (%); • VD—donor well volume (0.3 mL); • VA—acceptor well volume (0.2 mL); • cA(t)—acceptor well compound concentration at time t; • cD(t)—donor well compound concentration at time t; • c0—initial donor well compound concentration (200 µM).

P. falciparum NF54 [2] = tested on: P. falciparum NF54; design: method as in PMID 34832891; settings: comparison compounds 1-4 of the first series, cited from earlier work; for IC50: read-out: PfNF54 IC50
L-6 cells [3] = tested on: L-6 cells; design: method as in PMID 34832891; settings: comparison compounds 1-4 of the first series; read-out: Cytotoxicity L-6 Cells IC50; cited from earlier work
P. falciparum NF54 [4] = experiment: In vitro microplate assay against P. falciparum NF54 (3H-hypoxanthine incorporation); type: cell-based, Plasmodium falciparum; settings: for IC50: average of four determinations, read-out: PfNF54 IC50
Experimental: (§1) All newly prepared compounds were tested for their in vitro activity against the chloroquine sensitive strain NF54 of P. falciparum. Cytotoxicity was determined using L-6 cells (rat skeletal myofibroblasts). Chloroquine and podophyllotoxin were used as standards.
The in vitro activity of compounds against erythrocytic stages of the drug sensitive NF54 strain of P. falciparum […] was determined using a ^3H-hypoxanthine incorporation assay. Compounds were dissolved in DMSO at 10 mg/mL and further diluted in medium before adding to parasite cultures that were incubated in RPMI 1640 medium without hypoxanthine, supplemented with HEPES (5.94 g/L), NaHCO3 (2.1 g/L), neomycin (100 U/mL), AlbumaxR (5 g/L) and washed human red blood cells A+ at 2.5% haematocrit (0.3% parasitaemia). Serial drug dilutions of eleven 3-fold dilutions steps covering a range from 100 to 0.002 µg/mL were prepared. The 96-well plates were incubated in a humidified atmosphere at 37 °C; 4% CO2, 3% O2, 93% N2. After 48 h of incubation time, 0.05 mL of ^3H-hypoxanthine (=0.5 µCi) was added to each well of the plate. The plates were incubated for further 24 h under the same conditions. Plates were then harvested using a Betaplate^TM cell harvester (Wallac, Zurich, Switzerland). Red blood cells were transferred onto a glass fiber filter and then washed with distilled water. The dried filters were inserted into a plastic foil with 10 mL of scintillation fluid and counted in a Betaplate^TM liquid scintillation counter (Wallac, Zurich, Switzerland). IC50 values were calculated from sigmoidal inhibition curves by linear regression using Microsoft Excel. Chloroquine (Sigma C6628) was used as control.

in vitro = settings: rat
Experimental: as §1
(§2) The cytotoxicity assays were performed using 96-well microtiter plates, each well containing 4000 L-6 cells (a primary cell line derived from rat skeletal myofibroblasts, ATCC CRL-1458^TM) in 0.1 mL of RPMI 1640 medium supplemented with 1% glutamine (200 mM) and 10% fetal bovine serum. Serial drug dilutions of eleven 3-fold dilution steps covering a range from 100 to 0.002 µg/mL were prepared. After 70 h of incubation, the plates were inspected under an inverted microscope to assure growth of the controls and sterile conditions. Then, 0.01 mL resazurin solution (resazurin, 12.5 mg in 100 mL double-distilled water) was added to each well and the plates were incubated for another 2 h. The plates were read with a Spectramax Gemini XS microplate fluorometer (Molecular Devices Cooperation, Sunnyvale, CA, USA) using an excitation wavelength of 536 nm and an emission wavelength of 588 nm. IC50 values were calculated by linear regression from the sigmoidal dose inhibition curves using SoftmaxPro software (Molecular Devices Cooperation, Sunnyvale, CA, USA). Podophyllotoxin (Sigma P4405) was used as control.

[5] = Solubility in DMSO and methanol (PAMPA stock solutions); type: physicochemical
Experimental: Permeability is defined using hydrochlorothiazide (Pe = 0.09 × 10^−6 cm/s) and caffeine (Pe = 8.00 × 10^−6 cm/s) as standards.
With the high-throughput PAMPA the newly synthesized compounds were tested for their passive permeability through cell membranes without the influence of efflux pumps or transporter proteins. The assay was performed using a Corning® Gentest^TM Pre-coated PAMPA Plate System with 96-well polystyrene plates. The bottom of the acceptor plate consists of a porous membrane, whereby the pores are lined with a lipid-oil-lipid triple layer. Stock solutions of each test compound at 10 mM were prepared in DMSO or methanol and diluted with phosphate-buffered saline (PBS at a pH of 7.4) to a final concentration of 200 µM. Hydrochlorothiazide (Pe = 0.9 nm/s) and caffeine (Pe = 80 nm/s) were used as standards. The donor plate (bottom plate) was filled with the compound solutions, whereby all compounds were tested in quadruplicates. Each well of the acceptor plate (top plate) was filled with PBS buffer. Donor and acceptor plates were combined and incubated at room temperature for 5 h. After that, the plates were separated and 150 µL of each well of both plates were transferred to 96-well UV plates (Greiner Bio-One). Absorption at different wavelengths covering a range from 200 to 300 nm was measured using a SpectraMax M3 UV plate reader. By measuring serial dilutions of five dilution steps covering a range from 200 to 12.5 µM, a calibration curve was prepared. The plates were analyzed at the wavelength where the R^2 value of the calibration curve was higher than 0.99 [41]. […] (2) cequ=[cD(t)∗VD+cA(t)∗VA]/(VD+VA) where: • VD—donor well volume (0.3 mL); • VA—acceptor well volume (0.2 mL); • cA(t)—acceptor well compound concentration at time t; • cD(t)—donor well compound concentration at time t.

L-6 cells [6] = experiment: in vitro
Experimental: as §1, §2

[7] = Plasmodium falciparum, NF54, chloroquine sensitive strain NF54, erythrocytic stages
[8] = reason why permeability could not be detected

| Molecule | S.I. = IC50 (Cyt.)/IC50 (PfNF54) (P. falciparum NF54 [2]) | IC50 (P. falciparum NF54 [2]) | IC50 (L-6 cells [3]) | IC50 (P. falciparum NF54 [4]; [7]) | IC50 at 72 h (in vitro) | solubility in DMSO and methanol [5, 8] | other results |
| --- | --- | --- | --- | --- | --- | --- | --- |
| CC(C)(C)OC(=O)N1CCN(c2ccccc2NC(=O)c2cccc(C(F)(F)F)c2Oc2ccc(F)cc2)CC1 [Compound 1, reference compound] | 316.9 | 0.413 µM | 131 µM |  |  |  | Pe [1]: 2.37 10^−6 cm/s |
| CC(C)(C)OC(=O)N1CCN(c2ccc(NC(=O)c3cccc(C(F)(F)F)c3Oc3ccc(F)cc3)cc2)CC1 [Compound 2] | 461.0 | 0.269 µM | 124 µM |  |  |  |  |
| CC(C)(C)C(=O)N1CCN(c2ccccc2NC(=O)c2cccc(C(F)(F)F)c2Oc2ccc(F)cc2)CC1 [Compound 3] | 299.7 | 0.617 µM | 185 µM |  |  |  |  |
| CC(C)(C)C(=O)N1CCN(c2ccc(NC(=O)c3cccc(C(F)(F)F)c3Oc3ccc(F)cc3)cc2)CC1 [Compound 4] | 171.9 | 0.58 µM | 99.6 µM |  |  |  |  |
| CC(C)(C)OC(=O)N1CCN(c2ccccc2NC(=O)c2ccccc2Oc2ccc(F)cc2)CC1 [Compound 26, tert-Butyl 4-{2-[2-(4-fluorophenoxy)benzamido]phenyl}piperazine-1-carboxylate] |  |  |  | 0.627 µM | 154 µM | insufficient solubility |  |
| CC(C)(C)C(=O)N1CCN(c2ccccc2NC(=O)c2ccccc2Oc2ccc(F)cc2)CC1 [Compound 33, N-{2-[4-(2,2-Dimethylpropanoyl)piperazin-1-yl]phenyl}-2-(4-fluorophenoxy)benzamid] |  |  |  | 2.15 µM | 38.3 µM | insufficient solubility |  |
| CC(C)(C)C(=O)N1CCN(c2ccc(NC(=O)c3cccc([N+](=O)[O-])c3Oc3ccc(F)cc3)cc2)CC1 [Compound 44, N-{4-[4-(2,2-Dimethylpropanoyl)piperazin-1-yl]phenyl}-2-(4-fluorophenoxy)-3-nitrobenzamid] |  |  |  | 1.5 µM | 144 µM | insufficient solubility |  |
| CC(C)(C)OC(=O)N1CCN(c2ccc(NC(=O)c3cccc(N)c3Oc3ccc(F)cc3)cc2)CC1 [Compound 47, tert-Butyl 4-{4-[3-amino-2-(4-fluorophenoxy)benzamido]phenyl}piperazine-1-carboxylate] |  |  |  | 3.08 µM | 158 µM |  | Papp at 5 h, 200 µM ([1]; pH 7.4, Pe): 0.62 ×10⁻⁶ cm/s |
| tert-Butyl 4-{4-[3-fluoro-2-(4-fluorophenoxy)benzamido]phenyl}piperazin-1-carboxylate [Compound 27] |  |  |  |  |  |  | S.I. = IC50 (Cyt.)/IC50 (PfNF54) (P. falciparum NF54 [4]; L-6 cells IC50 / PfNF54 IC50): 237.5; IC50 (P. falciparum NF54 [4]; chloroquine sensitive strain NF54, erythrocytic stages): 0.65 µM; IC50 (L-6 cells [6]): 154 µM; solubility in DMSO and methanol [5]: insufficient solubility |
